{
  "source": "patent US11517598B2",
  "about": "(priority 2016, dated 2022)",
  "tested_on": "cytokine, chemokine and IFN stimulated gene expression in 786-0 cells",
  "assay_type": "cell-based, human",
  "data": [
    {"substance": "Sodium orthovanadate", "values": [
      {"measurement": "CXCL9 mRNA up-regulation", "result": "more than 100,000 fold"},
      {"measurement": "IFNβ mRNA up-regulation", "result": "more than 10 fold"},
      {"measurement": "IFNγ expression", "result": "not up-regulated at any time-point post infection under any condition tested"},
      {"measurement": "MX2 and IFITM1 mRNA", "result": "robustly downregulated as early as 8 h post-infection"},
      {"measurement": "expression of proinflammatory cytokines (CCL8, CCL3, IL6, TNF, IFNβ, CCL5) and type II IFN induced genes (CXCL9, CXCL10, CXCL11)", "result": "increased expression of a number of proinflammatory cytokines"},
      {"measurement": "genes typically induced by Type I IFN", "result": "either unaffected or decreased"}
    ]}
  ]
}
